# Source: patent publication US8470763B2, “Alpha-amino-N-substituted amides, pharmaceutical composition containing them and uses thereof” (Shanghai Institute of Materia Medica Chinese Academy of …, priority 2007, dated 2013)
# What was measured:
# [1] = tested on: colon cancer cells HCT116; test: MTT assay, HCT116 cells; type: cell-based; details: Homo sapiens, HCT-116, 72 h
# Description: The adhered MDA-MB-4355 cells in logarithmic growth phase, were digested by 0.05% trypsogen, counted and formulated into a cell suspension with a medium. After counted, the suspension was inoculated on a 96-well plate with 3000 cells and 100 μl medium per well. The inoculated 96-well plate was placed overnight in an incubator at 37 with 5% CO2 to allow the cells to adhere to the wall. On the next day, the administration of the drugs started. Before the administration, into some of the control wells, each was added 20 μl of the MTT solution (5 mg/ml) without removing the medium therein. After incubated for 3 h, the absorption at A550/690 was recorded as the initial cell concentration. For the drug wells, each was added into 100 μl of medium containing 2 μl of compound solution. For the control wells which use DMSO as background control, each was also added into 100 μl of medium containing 2 μl of DMSO. In addition, each experiment was carried out with adriamycin as the positive control. Subsequently, the 96-well plate was incubated in an incubator at 37 with 5% CO2 for 72 h. each compound was tested in triplicate wells (6 μl of compound solution was put into a sterilized eppendorf centrifuge tube, then 300 μl of medium was added and mixed well, and the mixture was distributed into 3 wells respectively), and at six concentrations which form a gradient. 3 days (72 h) later, 40 μl of MTT solution (5 mg/ml) was put into each well directly (without sucking off the medium therein), and the plate was incubated in the incubator for 3 h and then taken out. The liquid in each well was sucked off, and then 100 μl of DMSO was put into each well to dissolve the crystal completely with slight shake. The absorbance of the solution in each well was determined at 550/690 nm on an ELISA Reader as the cell density after treated with the compound. The growth inhibition of compound against breast cancer cells MDA-MB-435S was represented by the cell survival rate, and IC50 was determined from the profile of cell survival rate vs compound concentration. The calculating formula was as follows: cell survival rate=[(cells+compound)A550/690/(cells+compound vector DMSO)A550/690]×100%
# MDA-MB-435S: human breast cancer cells; HCT116: colon cancer cells; A549: lung adenocarcinoma cells; Hela: uterine cervix cancer cells.
# The tests were performed in the same manner as that of experimental example 1, except that for Hela cells, after counted, each well was seeded with 1000 cells and 100 μl of medium on a 96-well plate.
# DU145 (Prostatic Cancer) = test: SRB assay, DU145; type: cell-based; details: Homo sapiens, DU-145, 72 h, read-out: IC50 (μM) (mean ± SD)
# Description: Experimental method: The antineoplasmic activities in vitro of the compounds were determined by SRB assay. The detailed procedure was as follows. The cells in the logarithmic growth phase were inoculated on a 96-well microculture plate with a suitable density (100 μl/well), and allowed to attach overnight, followed by addition of the compound at different concentrations to be treated for 72 h. For each concentration, the test was carried out in triplicate wells, and included control wells containing the aqueous medium of normal saline and a blank well containing all medium without cells for zeroing. After cultured overnight, the cells were treated with the compound at different concentrations for 72 h. After the treatment, the culture medium was removed, and the cells were fixed with 10% (wt/vol) trichloroacetic acid (100 μL/well) at 4° C. for 1 h. The cells were then washed with distilled water for 5 times, and died at room temperature, followed by addition of a SRB solution (4 mg/mL, dissolved in 1% glacial acetic acid) at 100 μL/well. The cells were incubated and stained at room temperature for 15 min, then washed with 1% glacial acetic acid for 5 times to remove the uncombined SRB, and died at room temperature. 100 μL of 10 mM Tris solution was added in each well, and the Optical Density (OD) were measured at a wavelength of 560 nm on a VERSMax ELISA Reader (Molecule Devices). The growth inhibition of the compound against tumor cells was calculated according to the following equation: Growth inhibition (%)=(ODcontrol−ODtreated)/ODcontrol×100%.
# IC50 (the concentration of the sample compound that is required for 50% inhibition of cell growth) was calculated by using the Logit method based on the measurement, and each test was repeated for 3 times to calculate the mean value and standard deviation.
# [2] = tested on: human breast cancer cells MDA-MB-435 transplanted on nude mice; test: Antineoplasmic activity in vivo, MDA-MB-435 transplanted tumor on nude mice; details: for Body Weight(g) Ultimate / TV (mm^3) d21 / RTV: q3w × 3w; for Body Weight(g) Ultimate: i.v. 4 times then peritoneally 5 times; for RTV: d21
# Description: Dosage: among 3 groups, the dosages of L538 were set at 5, 10 and 20 mg/kg as the high, middle and low dosages, respectively, administrating intravenously 3 times a week; while MMC was administrated intravenously at the first day whit a dosage of 5 mg/kg.
# Animals: BALB/CA nude mice, male, 40-45 days old, body weight: 18±1 g, provided by Shanghai Institute of Materia Medica, Chinese Academy of Sciences. […] Animal number in each group: 7 in negative control group, and 4 in administration group.
# The amount of inoculated cells was 5×10^6. After the transplanted tumor was formed by inoculation, it was used after passed for 3 generations in nude mice.
# Experimental procedure: tumor tissue in productive phase was cut into nubs of about 1.5 mm^3. Under sterile conditions, the nubs were inoculated subcutaneously in right axillary fossa of the nude mice. The diameters of the transplanted tumors on nude mice were measured by a vernier caliper. When the tumors grew up to 100-200 mm^3, the animals were divided randomly into groups. Mice in experimental groups were administered intravenously every other day. […] The total administration duration was 3 weeks. For the positive control, MMC, Mice were administered intravenously once at the first day of a week, and the total administration duration was 3 weeks. Mice in control groups were administrated physiologic saline in equivalent amount. The diameter of the tumor and weight of mice were measured twice a week. The equation for calculating the TV (tumor volume) was as follows: TV=½×a×b^2, • wherein, a is length and b is width. RTV (relative tumor volume) was calculated based on the measured results, and the equation thereof was as follows: RTV=Vt/V0 • wherein, V0 is the tumor volume measured when the mice were grouped (i.e. d0), and Vt is the tumor volume at each measurement. The evaluation index for the antitumor activity was the relative tumor proliferation rateT/C (%).
# The calculation equation was as follows: T/C(%)=(TRTV/CRTV)×100, • wherein, TRTV is the RTV of therapeutic Group and CRTV is RTV of negative control group.
smiles,measurement,setting,value
CO[C@@H](C(=O)N[C@@H](C)C(=O)NCCOC(=O)C12CC3CC(CC(C3)C1)C2)[C@H](O)[C@@H](O)[C@H](O)/C=C/C(C)(C)C [Compound L538],IC50,[1],98 ± 9 nM
same,IC50,DU145 (Prostatic Cancer),0.14 ± 0.04 µM
same,"growth inhibition of transplanted tumor, conclusion","[2]; 5, 10 and 20 mg/kg, 3 weeks",can significantly depress the growth
same,T/C (%),"[2]; L538 5 mg/kg, q3w × 3w (low dosage group), P >0.05",64.7%
same,Body Weight(g) Ultimate,"[2]; L538 5 mg/kg, initial 19.3 g",23.5 g
same,TV (mm^3) d21,"[2]; L538 5 mg/kg, d0 131 ± 59",1144 ± 353 mm^3
same,RTV,[2]; L538 5 mg/kg,9.6 ± 3.5
same,T/C (%),"[2]; L538 10 mg/kg, q3w × 3w (middle dosage group), P <0.05",47.1%
same,Body Weight(g) Ultimate,"[2]; L538 10 mg/kg, initial 17.7 g",21.7 g
same,TV (mm^3) d21,"[2]; L538 10 mg/kg, d0 133 ± 49",951 ± 619 mm^3
same,RTV,[2]; L538 10 mg/kg,6.9 ± 3.6
same,T/C (%),"[2]; L538 20 mg/kg, q3w × 3w (high dosage group), P <0.05",36.0%
same,Body Weight(g) Ultimate,"[2]; L538 20 mg/kg, initial 18.5 g",19.7 g
same,TV (mm^3) d21,"[2]; L538 20 mg/kg, d0 135 ± 37",735 ± 501 mm^3
same,RTV,[2]; L538 20 mg/kg,5.3 ± 3.1
same,tail stimulus on intravenous administration,"[2]; after administered intravenously 4 times, every other day",too strong tail stimulus to be administered intravenously
same,increase in body weight,[2]; high dosage group,did not have an significant increase in body weight
same,growth inhibition of transplanted tumor,[2]; low dosage group,did not be depressed obviously
